Assay: Dissolution percentage as a function of time, UV spectrophotometry
Type: physicochemical
Settings: API as received
Experimental: The dissolution percentage as a function of time was measured by respectively dissolving the as received CBZ and the coated MCC carrier particles in methanol (although other dissolution media could be used). UV spectrophotometry was used to measure the concentration of the CBZ dissolved in the methanol.

SMILES	dissolution percentage (after approximately 50 minutes, methanol)	dissolution percentage (within 10 minutes, methanol)	dissolution percentage (after approximately 60 minutes)
NC(=O)N1c2ccccc2C=Cc2ccccc21 [Carbamazepine, carbamazepine]	approximately 80%	less than 40%	
Cc1nc2n(c(=O)c1CCN1CCC(c3noc4cc(F)ccc34)CC1)CCCC2 [Risperidone, risperidone]			less than 40%
